Article PMC7434893 (British Journal of Cancer, 2020)
Where “and” joins values, the source holds several entries; their conditions need not be identical. Equal values may be shown once. Read-outs that look alike come from different tables or passages of the source.

Columns and labels:
SNG-M = assay: 8-day growth inhibition; format: cell-based; conditions: Endometrial, 8-day assay
JVM-13 = assay: 8-day growth inhibition; format: cell-based; conditions: MCL, JVM-13, 8-day assay
HEC-6 = assay: 8-day growth inhibition; format: cell-based; conditions: Endometrial, HEC-6, 8-day assay

O=c1[nH]nc2c3c(cccc13)N=C(CN1Cc3ccccc3C1)N2 [E7449]
Abdominal pain, treatment-related AE (50 mg (n = 3)): 0%
Anaemia, treatment-related AE (50 mg (n = 3)): 33.3%
Chromaturia, treatment-related AE (50 mg (n = 3)): 0%
Constipation, treatment-related AE (50 mg (n = 3)): 33.3%
Decreased appetite, treatment-related AE (50 mg (n = 3)): 33.3%
Depression, treatment-related AE (50 mg (n = 3)): 0%
Diarrhoea, treatment-related AE (50 mg (n = 3)): 33.3%
Dizziness, treatment-related AE (50 mg (n = 3)): 0%
Dry skin, treatment-related AE (50 mg (n = 3)): 0%
Dysgeusia, treatment-related AE (50 mg (n = 3)): 0%
Erythematous rash, treatment-related AE (50 mg (n = 3)): 0%
Fatigue, treatment-related AE (50 mg (n = 3)): 33.3%
Increased blood alkaline phosphatase, treatment-related AE (50 mg (n = 3)): 0%
Maculopapular rash, treatment-related AE (50 mg (n = 3)): 0%
Nausea, treatment-related AE (50 mg (n = 3)): 33.3%
Onycholysis, treatment-related AE (50 mg (n = 3)): 0%
Periorbital oedema, treatment-related AE (50 mg (n = 3)): 0%
Photosensitivity reaction, treatment-related AE (50 mg (n = 3)): 33.3%
Pruritus, treatment-related AE (50 mg (n = 3)): 0%
Skin hyperpigmentation, treatment-related AE (50 mg (n = 3)): 0%
Vomiting, treatment-related AE (50 mg (n = 3)): 33.3%
Patients with dose-limiting toxicity, n (%) (50 mg cohort, 3 evaluable): 0 n (%)
Abdominal pain, treatment-related AE (100 mg (n = 3)): 33.3%
Anaemia, treatment-related AE (100 mg (n = 3)): 0%
Chromaturia, treatment-related AE (100 mg (n = 3)): 0%
Constipation, treatment-related AE (100 mg (n = 3)): 33.3%
Decreased appetite, treatment-related AE (100 mg (n = 3)): 0%
Depression, treatment-related AE (100 mg (n = 3)): 33.3%
Diarrhoea, treatment-related AE (100 mg (n = 3)): 33.3%
Dizziness, treatment-related AE (100 mg (n = 3)): 0%
Dry skin, treatment-related AE (100 mg (n = 3)): 33.3%
Dysgeusia, treatment-related AE (100 mg (n = 3)): 0%
Erythematous rash, treatment-related AE (100 mg (n = 3)): 0%
Fatigue, treatment-related AE (100 mg (n = 3)): 66.7%
Increased blood alkaline phosphatase, treatment-related AE (100 mg (n = 3)): 0%
Maculopapular rash, treatment-related AE (100 mg (n = 3)): 33.3%
Nausea, treatment-related AE (100 mg (n = 3)): 33.3%
Onycholysis, treatment-related AE (100 mg (n = 3)): 0%
Periorbital oedema, treatment-related AE (100 mg (n = 3)): 0%
Photosensitivity reaction, treatment-related AE (100 mg (n = 3)): 33.3%
Pruritus, treatment-related AE (100 mg (n = 3)): 33.3%
Skin hyperpigmentation, treatment-related AE (100 mg (n = 3)): 33.3%
Vomiting, treatment-related AE (100 mg (n = 3)): 0%
Patients with dose-limiting toxicity, n (%) (100 mg cohort, 3 evaluable): 0 n (%)
Abdominal pain, treatment-related AE (200 mg (n = 4)): 0%
Anaemia, treatment-related AE (200 mg (n = 4)): 0%
Chromaturia, treatment-related AE (200 mg (n = 4)): 0%
Constipation, treatment-related AE (200 mg (n = 4)): 0%
Decreased appetite, treatment-related AE (200 mg (n = 4)): 0%
Depression, treatment-related AE (200 mg (n = 4)): 25.0%
Diarrhoea, treatment-related AE (200 mg (n = 4)): 0%
Dizziness, treatment-related AE (200 mg (n = 4)): 0%
Dry skin, treatment-related AE (200 mg (n = 4)): 0%
Dysgeusia, treatment-related AE (200 mg (n = 4)): 0%
Erythematous rash, treatment-related AE (200 mg (n = 4)): 0%
Fatigue, treatment-related AE (200 mg (n = 4)): 0%
Increased blood alkaline phosphatase, treatment-related AE (200 mg (n = 4)): 0%
Maculopapular rash, treatment-related AE (200 mg (n = 4)): 25.0%
Nausea, treatment-related AE (200 mg (n = 4)): 50.0%
Onycholysis, treatment-related AE (200 mg (n = 4)): 0%
Periorbital oedema, treatment-related AE (200 mg (n = 4)): 0%
Photosensitivity reaction, treatment-related AE (200 mg (n = 4)): 0%
Pruritus, treatment-related AE (200 mg (n = 4)): 0%
Skin hyperpigmentation, treatment-related AE (200 mg (n = 4)): 0%
Vomiting, treatment-related AE (200 mg (n = 4)): 25.0%
Patients with dose-limiting toxicity, n (%) (200 mg cohort, 4 evaluable): 0 n (%)
Abdominal pain, treatment-related AE (400 mg (n = 4)): 25.0%
Anaemia, treatment-related AE (400 mg (n = 4)): 0%
Chromaturia, treatment-related AE (400 mg (n = 4)): 50.0%
Constipation, treatment-related AE (400 mg (n = 4)): 0%
Decreased appetite, treatment-related AE (400 mg (n = 4)): 25.0%
Depression, treatment-related AE (400 mg (n = 4)): 50.0%
Diarrhoea, treatment-related AE (400 mg (n = 4)): 50.0%
Dizziness, treatment-related AE (400 mg (n = 4)): 0%
Dry skin, treatment-related AE (400 mg (n = 4)): 0%
Dysgeusia, treatment-related AE (400 mg (n = 4)): 0%
Erythematous rash, treatment-related AE (400 mg (n = 4)): 0%
Fatigue, treatment-related AE (400 mg (n = 4)): 75.0%
Increased blood alkaline phosphatase, treatment-related AE (400 mg (n = 4)): 25.0%
Maculopapular rash, treatment-related AE (400 mg (n = 4)): 25.0%
Nausea, treatment-related AE (400 mg (n = 4)): 25.0%
Onycholysis, treatment-related AE (400 mg (n = 4)): 25.0%
Periorbital oedema, treatment-related AE (400 mg (n = 4)): 25.0%
Photosensitivity reaction, treatment-related AE (400 mg (n = 4)): 25.0%
Pruritus, treatment-related AE (400 mg (n = 4)): 0%
Skin hyperpigmentation, treatment-related AE (400 mg (n = 4)): 0%
Vomiting, treatment-related AE (400 mg (n = 4)): 0%
Patients with dose-limiting toxicity, n (%) (400 mg cohort, 3 evaluable): 0 n (%)
Abdominal pain, treatment-related AE (600 mg (n = 21)): 0%
Anaemia, treatment-related AE (600 mg (n = 21)): 9.5%
Chromaturia, treatment-related AE (600 mg (n = 21)): 66.7%
Constipation, treatment-related AE (600 mg (n = 21)): 9.5%
Decreased appetite, treatment-related AE (600 mg (n = 21)): 23.8%
Depression, treatment-related AE (600 mg (n = 21)): 4.8%
Diarrhoea, treatment-related AE (600 mg (n = 21)): 23.8%
Dizziness, treatment-related AE (600 mg (n = 21)): 4.8%
Dry skin, treatment-related AE (600 mg (n = 21)): 4.8%
Dysgeusia, treatment-related AE (600 mg (n = 21)): 14.3%
Erythematous rash, treatment-related AE (600 mg (n = 21)): 9.5%
Fatigue, treatment-related AE (600 mg (n = 21)): 66.7%
Increased blood alkaline phosphatase, treatment-related AE (600 mg (n = 21)): 14.3%
Maculopapular rash, treatment-related AE (600 mg (n = 21)): 33.3%
Nausea, treatment-related AE (600 mg (n = 21)): 33.3%
Onycholysis, treatment-related AE (600 mg (n = 21)): 9.5%
Periorbital oedema, treatment-related AE (600 mg (n = 21)): 19.0%
Photosensitivity reaction, treatment-related AE (600 mg (n = 21)): 23.8%
Pruritus, treatment-related AE (600 mg (n = 21)): 19.0%
Skin hyperpigmentation, treatment-related AE (600 mg (n = 21)): 9.5%
Vomiting, treatment-related AE (600 mg (n = 21)): 14.3%
Dose-limiting-toxicity description (600 mg cohort): Grade 3 anaphylactic reaction
Patients with dose-limiting toxicity, n (%) (600 mg cohort, 6 evaluable): 1 (16.7) n (%)
Treatment-related grade 3 fatigue, patients (600 mg n = 2, 800 mg n = 2): 4
Abdominal pain, treatment-related AE (800 mg (n = 6)): 16.7%
Anaemia, treatment-related AE (800 mg (n = 6)): 0%
Chromaturia, treatment-related AE (800 mg (n = 6)): 66.7%
Constipation, treatment-related AE (800 mg (n = 6)): 0%
Decreased appetite, treatment-related AE (800 mg (n = 6)): 50.0%
Depression, treatment-related AE (800 mg (n = 6)): 16.7%
Diarrhoea, treatment-related AE (800 mg (n = 6)): 50.0%
Dizziness, treatment-related AE (800 mg (n = 6)): 33.3%
Dry skin, treatment-related AE (800 mg (n = 6)): 33.3%
Dysgeusia, treatment-related AE (800 mg (n = 6)): 0%
Erythematous rash, treatment-related AE (800 mg (n = 6)): 16.7%
Fatigue, treatment-related AE (800 mg (n = 6)): 100.0%
Increased blood alkaline phosphatase, treatment-related AE (800 mg (n = 6)): 0%
Maculopapular rash, treatment-related AE (800 mg (n = 6)): 16.7%
Nausea, treatment-related AE (800 mg (n = 6)): 33.3%
Onycholysis, treatment-related AE (800 mg (n = 6)): 0%
Periorbital oedema, treatment-related AE (800 mg (n = 6)): 0%
Photosensitivity reaction, treatment-related AE (800 mg (n = 6)): 33.3%
Pruritus, treatment-related AE (800 mg (n = 6)): 0%
Skin hyperpigmentation, treatment-related AE (800 mg (n = 6)): 33.3%
Vomiting, treatment-related AE (800 mg (n = 6)): 33.3%
Dose-limiting-toxicity description (800 mg cohort): Grade 3 fatigue (n = 1) Grade 2 fatigue (n = 3)
Patients with dose-limiting toxicity, n (%) (800 mg cohort, 6 evaluable): 4 (66.7) n (%)
Treatment-emergent AEs associated with skin rash events, patients (17/41, doses ≥100 mg): 41.5%
Grade 4 AE (hypokalaemia, not treatment-related), patients (200-mg dose cohort): 1
Treatment-emergent chromaturia, patients (400-mg dose cohort): 50.0%
Treatment-emergent AEs associated with skin rash events, patients (600-mg dose cohort): 47.6%
Treatment-emergent chromaturia, patients (600-mg dose cohort): 66.7%
Treatment-emergent AEs associated with skin rash events, patients (800-mg dose cohort): 66.7%
Treatment-emergent chromaturia, patients (800-mg dose cohort): 83.3%
Abdominal pain, treatment-related AE (Total (N = 41)): 7.3%
Anaemia, treatment-related AE (Total (N = 41)): 7.3%
Chromaturia, treatment-related AE (Total (N = 41)): 49% and 48.8%
Constipation, treatment-related AE (Total (N = 41)): 9.8%
Decreased appetite, treatment-related AE (Total (N = 41)): 24% and 24.4%
Depression, treatment-related AE (Total (N = 41)): 14.6%
Diarrhoea, treatment-related AE (Total (N = 41)): 29% and 29.3%
Dizziness, treatment-related AE (Total (N = 41)): 7.3%
Dry skin, treatment-related AE (Total (N = 41)): 9.8%
Dysgeusia, treatment-related AE (Total (N = 41)): 7.3%
Erythematous rash, treatment-related AE (Total (N = 41)): 7.3%
Fatigue, treatment-related AE (Total (N = 41)): 63% and 63.4%
Increased blood alkaline phosphatase, treatment-related AE (Total (N = 41)): 9.8%
Maculopapular rash, treatment-related AE (Total (N = 41)): 27% and 26.8%
Nausea, treatment-related AE (Total (N = 41)): 34% and 34.1%
Onycholysis, treatment-related AE (Total (N = 41)): 7.3%
Periorbital oedema, treatment-related AE (Total (N = 41)): 12.2%
Photosensitivity reaction, treatment-related AE (Total (N = 41)): 24% and 24.4%
Pruritus, treatment-related AE (Total (N = 41)): 12.2%
Skin hyperpigmentation, treatment-related AE (Total (N = 41)): 12.2%
Vomiting, treatment-related AE (Total (N = 41)): 17.1%
Grade 5 AEs (all cohorts): No grade 5 AEs
Grade 3 fatigue, patients (all cohorts, 7/41): 17.1%
Treatment discontinued due to AEs, patients (all cohorts, 7/41): 17%
Treatment-emergent chromaturia, patients (all cohorts, 21/41): 51.2%
Nonfatal SAEs, patients (all cohorts, 24/41): 58.5%
Grade 3 AEs, patients (all cohorts, 27 of 41 patients): 65.9%
Patients with treatment-related AEs (all cohorts, 39 patients): 95.1%
Grade 1 thrombocytopenia, patients (at the MTD, 1/21): 5%
Anaemia (≤grade 2), patients (at the MTD, 4/21): 19%
Patients with DLTs (of the 25 evaluable patients, all dose cohorts): 5
Recommended phase 2 dose (oral, once daily): 600 mg
Maximum-tolerated dose (MTD) (oral, once daily, 28-day cycles): 600 mg
IC50 (SNG-M): 1.36 µM
IC50 (JVM-13): 7.3 µM
IC50 (HEC-6): 1.88 µM
